Where two headings read alike, the source gives them in different places.
Assays:
M. tuberculosis InhA = biological target: T1, M. tuberculosis InhA (Mycobacterium tuberculosis, UniProt P9WGR1); experiment: InhA enzymatic inhibition assay (NADH oxidation at 340 nm); assay type: biochemical; conditions: for inhibition at 0.01 µM: compound at 10 nM, read-out: InhA enzyme inhibition percentage at 10 nM
T1 construct: made in house; host or cells: E. coli

[1] = biological target: mycobacterium tuberculosis InhA enzyme; design: method as in doi:10.1016/j.molstruc.2020.129148; conditions: literature lead structures; read-out: IC50 (InhA inhibitors, lead structures); cited from earlier work
[2] = 70 nM InhA, 2 h pre-incubation, pH 6.8, 25 °C, 35 μM trans-2-decenoyl-CoA, 200 μM NADH, read-out: IC50, inhibitory effect against InhA

T1 sequence (P9WGR1 whole entry, looked up): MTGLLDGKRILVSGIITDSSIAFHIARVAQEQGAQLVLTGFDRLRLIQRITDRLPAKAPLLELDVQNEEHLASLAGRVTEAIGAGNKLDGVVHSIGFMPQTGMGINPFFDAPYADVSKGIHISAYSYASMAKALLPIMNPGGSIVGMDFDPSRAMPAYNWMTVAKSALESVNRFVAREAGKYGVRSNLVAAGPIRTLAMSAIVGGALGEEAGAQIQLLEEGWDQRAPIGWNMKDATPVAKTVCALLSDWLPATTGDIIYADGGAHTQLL

Row | SMILES | IC50 (M. tuberculosis InhA; [2]) | inhibition at 0.01 µM (M. tuberculosis InhA) | IC50 (M. tuberculosis InhA; read-out: IC50, inhibitory effect against InhA, 70 nM InhA, 2 h pre-incubation, pH 6.8, 25 °C, 35 μM trans-2-decenoyl-CoA, 200 μM NADH) | melting point | IC50 [1] | IC50 (M. tuberculosis InhA)
1 | S=c1[nH]nc(Cc2ccccc2)n1/N=C/c1ccc(N2CCOCC2)cc1 [4c, (E)-5-benzyl-4-((4-morpholinobenzylidene)amino)-2,4-dihydro-3H-1,2,4-triazole-3-thione] | 8.16 nM | – | – | – | – | –
2 | CC(=O)c1ccc(-n2cc(CSc3nnc(Cc4ccccc4)n3/N=C/c3cccc4c3OCO4)nn2)cc1 [7d] | – | 100% | 0.18 nM | 196 °C | – | –
3 | Sc1nnc(Cc2ccccc2)n1/N=C/c1cccc2c1OCO2 [4b] | 9.16 nM | – | – | 164 °C | – | –
4 | CC(=O)c1ccc(-n2cc(CSc3nnc(Cc4ccccc4)n3/N=C/c3ccc(N4CCOCC4)cc3)nn2)cc1 [7f] | 0.25 nM | 100% | – | 198 to 200 °C | – | –
5 | Sc1nnc(Cc2ccccc2)n1/N=C/c1cccs1 [4a, 5.-benzyl-4-((thiophen-2-ylmethylene)amino)-2,4-dihydro-3H-1,2,4-triazole-3-thione] | 53.2 nM | – | – | 184 to 186 °C | – | –
6 | Cc1nc(C)n(CCCNc2ccc(C(=O)Nc3ccc(F)c(Oc4ccccc4)c3)cn2)n1 [Lead structure A] | – | – | – | – | 906 nM | –
7 | CC(=O)c1ccc(-n2cc(CSc3nnc(Cc4ccccc4)n3/N=C/c3cccs3)nn2)cc1 [7b] | – | – | – | 196 °C | – | 12.5 nM
8 | C#CCSc1nnc(Cc2ccccc2)n1/N=C/c1ccc(N2CCOCC2)cc1 [5c] | 0.23 nM | 100% | – | 236 °C | – | –
9 | O=C(O)c1ccc(-n2cc(CSc3nnc(Cc4ccccc4)n3/N=C/c3ccc(N4CCOCC4)cc3)nn2)cc1 [7e, (E)-4-(4-(((5-benzyl-4-((4-morpholinobenzylidene)amino)-4H-1,2,4-triazol-3-yl)thio)methyl)-1H-1,2,3-triazol-1-yl)benzoic acid] | – | 100% | – | 192 °C | – | 0.13 nM
10 | C#CCSc1nnc(Cc2ccccc2)n1/N=C/c1cccc2c1OCO2 [5b, (E)-1-(benzo[d][1,3]dioxol-4-yl)-N-(3-benzyl-5-(prop-2-yn-1-ylthio)-4H-1,2,4-triazol-4-yl)methanimine] | 0.66 nM | 100% | – | 140 °C | – | –
11 | O=C(O)c1ccc(-n2cc(CSc3nnc(Cc4ccccc4)n3/N=C/c3cccs3)nn2)cc1 [7a, (E)-4-(4-(((5-benzyl-4-((thiophen-2-ylmethylene)amino)-4H-1,2,4-triazol-3-yl)thio)methyl)-1H-1,2,3-triazol-1-yl)benzoic acid] | 6.18 nM | – | – | 196 °C | – | –
12 | CNC(=O)CN(Cc1ccc(F)cc1)C(=O)C[C@H]1CC[C@@H](NC(=O)c2nnn(Cc3ccccc3)c2C)CC1 [Lead structure B] | – | – | – | – | 57 nM | –
13 | O=C(O)c1ccc(-n2cc(CSc3nnc(Cc4ccccc4)n3/N=C/c3cccc4c3OCO4)nn2)cc1 [7c, (E)-4-(4-(((4-((benzo[d][1,3]dioxol-4-ylmethylene)amino)-5-benzyl-4H-1,2,4-triazol-3-yl)thio)methyl)-1H-1,2,3-triazol-1-yl)benzoic acid] | – | 100% | – | 188 °C | – | 0.074 nM
14 | C#CCSc1nnc(Cc2ccccc2)n1/N=C/c1cccs1 [5a, (E)-N-(3-benzyl-5-(prop-2-yn-1-ylthio)-4H-1,2,4-triazol-4-yl)-1-(thiophen-2-yl)methanimine] | 5.61 nM | – | – | 98 °C | – | –

From article PMC9103244, “Novel Hybrid 1,2,4- and 1,2,3-Triazoles Targeting Mycobacterium Tuberculosis Enoyl Acyl Carrier Protein Reductase (InhA): Design, Synthesis, and Molecular Docking” (International Journal of Molecular Sciences, 2022)
